Data as given in US11390617B2, “Methods of treating non-Hodgkin lymphoma using 2-(2,6-dioxopiperidin-3-yl)-4-((2-fluoro-4-((3-morpholinoazetidin-1-yl)methyl)benzyl)amino)isoindoline-1,3-dione” (Celgene Corporation, priority 2019, dated 2022).

Columns and labels:
Test in all cases: NHL cell line viability/apoptosis 384-well flow cytometry assay
Type in all cases: cell-based
[1] = tested on: Farage; conditions: Farage (DLBCL), 120 hours
Procedure, shortened: (§1)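 Read-out is flow cytometry with Annexin V and the impermeant DNA dye DRAQ7 after 120 hours of compound exposure over 0.00015 to 10 μM. Live-cell counts relative to DMSO give IC50 and Emax; percent apoptosis relative to DMSO gives EC50 and Ymax, with AUC for both.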

[2] = tested on: KARPAS-422; conditions: KARPAS-422 (DLBCL), 120 hours
Procedure, shortened: as §1

[3] = tested on: OCI-LY19; conditions: OCI-LY19 (DLBCL), 120 hours
Procedure, shortened: as §1

[4] = tested on: Pfeiffer; conditions: Pfeiffer (DLBCL), 120 hours
Procedure, shortened: as §1

[5] = tested on: SU-DHL-10; conditions: SU-DHL-10 (DLBCL), 120 hours
Procedure, shortened: as §1

[6] = tested on: SU-DHL-1; conditions: SU-DHL-1 (DLBCL), 120 hours
Procedure, shortened: as §1

[7] = tested on: Toledo; conditions: Toledo (DLBCL), 120 hours
Procedure, shortened: as §1

[8] = tested on: WILL-2; conditions: WILL-2 (DLBCL), 120 hours
Procedure, shortened: as §1

[9] = read-out: IC50 (% Viable Cells)
[10] = Homo sapiens, read-out: IC50 (% Viable Cells)

O=C1CC[C@H](N2C(=O)c3cccc(NCc4ccc(CN5CC(N6CCOCC6)C5)cc4F)c3C2=O)C(=O)N1 [Compound 1, (S)-2-(2,6-dioxopiperidin-3-yl)-4-((2-fluoro-4-((3-morpholinoazetidin-1-yl)methyl)benzyl)amino)isoindoline-1,3-dione]
AUC (% Viable Cells) [1]: 10.16
AUC (Apoptosis) [1]: 728.7
EC50 [1]: 30.2 nM
Emax (% Viable Cells) [1]: 0.7936%
Ymax (Apoptosis) [1]: 84.17%
IC50 [1, 9]: 2.38 nM
EC50 ([2]; Homo sapiens): 46.1 nM
IC50 [2, 10]: 13.1 nM
AUC (% Viable Cells) [2]: 19.97
AUC (Apoptosis) [2]: 911.9
Emax (% Viable Cells) [2]: 0.8721%
Ymax (Apoptosis) [2]: 93.99%
EC50 ([3]; Homo sapiens): 283 nM
IC50 [3, 10]: 29.4 nM
AUC (% Viable Cells) [3]: 72.49
AUC (Apoptosis) [3]: 706.2
Emax (% Viable Cells) [3]: 3.228%
Ymax (Apoptosis) [3]: 80.91%
EC50 ([4]; Homo sapiens): 13.6 nM
IC50 [4, 10]: 47.7 nM
AUC (% Viable Cells) [4]: 313.5
AUC (Apoptosis) [4]: 493.3
Emax (% Viable Cells) [4]: 24.49%
Ymax (Apoptosis) [4]: 51.82%
EC50 ([5]; Homo sapiens, SU-DHL10): 39.4 nM
IC50 ([5]; Homo sapiens, SU-DHL10, read-out: IC50 (% Viable Cells)): 6.1 nM
AUC (% Viable Cells) [5]: 10.36
AUC (Apoptosis) [5]: 903
Emax (% Viable Cells) [5]: 0.6716%
Ymax (Apoptosis) [5]: 92.27%
EC50 ([6]; Homo sapiens): 1.1 nM
IC50 [6, 10]: 0.549 nM
AUC (% Viable Cells) [6]: 31.14
AUC (Apoptosis) [6]: 690.1
Emax (% Viable Cells) [6]: 2.485%
Ymax (Apoptosis) [6]: 73.83%
EC50 ([7]; Homo sapiens): 223 nM
IC50 [7, 10]: 2 nM
AUC (% Viable Cells) [7]: 112.3
AUC (Apoptosis) [7]: 231.4
Emax (% Viable Cells) [7]: 8.56%
Ymax (Apoptosis) [7]: 27.5%
AUC (% Viable Cells) [8]: 17.1
AUC (Apoptosis) [8]: 916.9
EC50 [8]: 89.7 nM
Emax (% Viable Cells) [8]: 0.03115%
Ymax (Apoptosis) [8]: 99.43%
IC50 [8, 9]: 2.36 nM
